Patent publication EP0240630A2, “Treatment of skin of over androgenicity using compositions containing pregnenolone” (priority 1986, dated 1987)

Columns and labels:
flank organ = details: topical application, graded doses, 5 days/week for 2 weeks; cited from earlier work
[1] = tested on: 3β-hydroxysteroid dehydrogenase Δ^4-5-isomerase (3βHSD); assay: Inhibition of 3βHSD conversion of 3H-DHA in rat preputial gland homogenate (TLC/scintillation counting); format: biochemical; details: rat preputial gland homogenate, 1,2-³H-DHA with 100 nmoles DHA, 37°C; range of four separate incubations
Protocol: To assess the androgen inhibiting activity of pregnenolone, rat preputial gland was employed to investigate the in vitro androgenic action of DHA. […] A pair of the glands are situated in the prepuce of the rate of either sex weighing between 125-200 mg in an average 200 g rat, being slightly larger in the male animal. The animals employed were female Sprague-Dawley rats, 10-12 weeks old and weighing 225-300 g.
The experimental format, stated broadly, was to excise preputial glands from rats and prepare a homogenate therefrom. A predetermined amount of homogenate (the sample) was then spiked with radiolabeled (with ³H) DHA, in the presence or absence of pregnenolone, and the sample was incubated. […] The metabolites were quantitated by removal from the thin layer plate and counting in a scintillation counter. By determining the extent of metabolite formation, the extent of inhibition of 3βHSD could be correspondingly determined. […]
Experiments were initially conducted to ensure that DHA and its metabolites could be separated chromatographically. […] The position of the steroid can be readily traced with this method. […] Elution and quantitative evaluation of steroids can be effected after removal of the iodine. […] For quantitation the plates were then scraped in 1 cm sections for radioassay of ³H in a Packard Tri- Carb liquid scintillation counter. […]

3βHSD = assay: In vivo metabolism of injected 1,2-3H-DHA in DHA-stimulated hamster flank organs after topical inhibitor; design: species or system Syrian Golden Hamsters; details: female hamsters, pregnenolone topical for 3 days; 1 hour after intracardial ³H-DHA
Source text: The effects of hormones and hormonally active substances on sebaceous glands can also be evaluated using the Syrian hamster flank organs as an animal model. The results of experiments using hamsters are valuable inasmuch as they can provide in vivo confirmation of the in vitro experiments like those described above using rat preputial gland. The flank organs, also called the costovertebral spot or the costovertebral organ, are sebaceous structures located on each flank of the animal. Like the sebaceous glands of the human and the preputial gland of the rate they are androgen dependent (Voigt and Hsia, 1973; Gomez and Frost, 1969; Frost and Gomez, 1973).
Hamster flank organs were accordingly used to test in vivo the androgenic inhibitory properties of pregnenolone.
Female Syrian Golden Hamsters were used in this experiment. […]
On the afternoon of day 3, an intracardial injection of 1,2-³H-DHA (5µCi/0.1 ml saline buffer solution) was given to both experimental groups anesthetized with ether. […] Each organ was then placed in a 16 mm x 150 mm test tube containing methanol and was homogenized, extracted and analyzed for steroid metabolites by separating the metabolites using thin layer chromatography as described above, scraping the thus separated metabolites from the thin layer plates, and quantitating using a scintillation counter. […]
Results are shown in Figure 2 expressed as DPM/mg tissue.

acne vulgaris = format: in vivo, human
Protocol: The following experiment was conducted and is a typical trial. In a double-blind clinical trial 23 patients with acne vulgaris volunteered to participate. Fifteen patients (11 females and 4 males) were given a 1% solution of pregnenolone dissolved in isopropanol containing 1% glycerol, and 8 patients (5 females and 3 males) were given a 1% solution of glycerol in isopropanol. Neither the patients nor the attending dermatologist knew whether or not the dispensed solution contained pregnenolone. The patients were instructed to stop using their previous medications for two weeks and then to apply the given solution to their faces twice daily. They were reexamined biweekly.

[2] = Solubility in formulation vehicles; format: physicochemical
Source text: With regard to formulation for use with humans, because pregnenolone is insoluble in water, most aqueous base vehicles or carriers are not useful in the invention. Vehicles with a high content of alcohols, such as isopropanol or mixtures of alcohols with longer (C₄-C₁₀) alkane or alkene chains, in which pregnenolone is soluble, would afford a suitable base for the formulation as liquid, gel or cream. Glycerol may be added in the preparation as an emollient. Glycerol is hygroscopic; it keeps the skin surface from drying. Other additions of moisturizers or perfumes as known in the art are compatible with pregnenolone.

flank organs = assay: Stimulation of female hamster flank organ growth by topical DHA; format: in vivo, female hamsters; details: 12 µg, 60 µg, 120 µg applied to the right side, 7 days/week for 6 weeks
Protocol: Before testing the anti-androgenic properties of pregnenolone on hamster flank organs and relying on the results, a centrally important question therefore needed to be answered -- Could DHA be shown to stimulate growth in the flank organs? This question was answered by applying graded doses of DHA, 12 µg, 60 µg, 120 µg to the right side of female hamsters (5 hamsters/group), for 7 days/week for 6 weeks.

[3] = 1% pregnenolone in isopropanol containing 1% glycerol, face, twice daily, twelve weeks, 15 patients

C[C@]12CC[C@@H](O)C[C@@H]1CC[C@@H]1[C@@H]2CC[C@]2(C)C(=O)CC[C@@H]12 [androsterone]
flank organ sebaceous gland growth and pigmentation (flank organ): did not cause flank organ growth or increased pigmentation

C[C@]12CCC(=O)C[C@@H]1CC[C@@H]1[C@@H]2CC[C@]2(C)[C@@H](O)CC[C@@H]12 [DHT, dihydrotestosterone]
flank organ sebaceous gland growth and pigmentation (flank organ): unilateral stimulation of sebaceous gland growth and pigmentation

C[C@]12CC[C@H](O)C[C@@H]1CC[C@@H]1[C@@H]2CC[C@]2(C)C(=O)CC[C@@H]12 [epiandrosterone]
flank organ sebaceous gland growth and pigmentation (flank organ): did not cause flank organ growth or increased pigmentation

C[C@]12CC[C@H]3[C@@H](CCC4=CC(=O)CC[C@@]43C)[C@@H]1CC[C@@H]2O [testosterone]
flank organ sebaceous gland growth and pigmentation (flank organ): unilateral stimulation of sebaceous gland growth and pigmentation

C[C@]12CCC(=O)C=C1CC[C@@H]1[C@@H]2CC[C@@]2(C)[C@H]1CC[C@]2(C)O [methyltestosterone]
flank organ sebaceous gland growth and pigmentation (flank organ): unilateral stimulation of sebaceous gland growth and pigmentation

C[C@]12CCC(=O)C=C1CC[C@@H]1[C@@H]2CC[C@]2(C)C(=O)CC[C@@H]12 [androstenedione, Δ⁴-androstenedione]
flank organ sebaceous gland growth and pigmentation (flank organ): unilateral stimulation of sebaceous gland growth and pigmentation

CC(=O)[C@H]1CC[C@H]2[C@@H]3CC=C4C[C@@H](O)CC[C@]4(C)[C@H]3CC[C@]12C [pregnenolone, Δ⁵-pregnene-3β-o1-20-one]
inhibition of the 3βHSD for DHA (Δ⁴-3-keto product formed, relative to absence of the inhibitor) [1]: 91-92%
formation of testosterone, DHT and androstanediol in flank organs, control versus treated (3βHSD): Control hamsters, not treated with inhibitor, show greater formation
patients noted definite improvement, with reduction in the size and number of lesions (acne vulgaris; [3]): 33%
patients noted no change in lesions or oiliness (acne vulgaris; [3]): 26%
patients noted reduction of oiliness (acne vulgaris; [3]): 13%
patients noted slight reduction of the number of lesions and a reduction in the oiliness of the skin (acne vulgaris; [3]): 26%
patients showed marked reductions in skin oiliness and in pore size (acne vulgaris; 1% pregnenolone in isopropanol containing 1% glycerol, twelve weeks, 15 patients): two
patients' comparison with other medications used previously (acne vulgaris; claim of patients who had used other medications previously): more effective and more acceptable
irritation or discomfort caused by the topical application (acne vulgaris; human, in vivo): no complaint
solubility in vehicles with a high content of alcohols ([2]; isopropanol or mixtures of alcohols with longer (C₄-C₁₀) alkane or alkene chains): soluble
solubility in water ([2]; water): insoluble

CC(=O)[C@H]1CC[C@H]2[C@@H]3CCC4=CC(=O)CC[C@]4(C)[C@H]3CC[C@]12C [progesterone]
flank organ sebaceous gland growth and pigmentation (flank organ): did not cause flank organ growth or increased pigmentation

C[C@]12CC[C@H](O)CC1=CC[C@@H]1[C@@H]2CC[C@]2(C)C(=O)CC[C@@H]12 [DHA, dehydroepiandrosterone]
stimulation of flank organ growth (flank organs): stimulation of both flank organs
